In patent US20260294880A1, “COMPOSITION FOR TREATING OTOTOXIC HEARING LOSS CAUSED BY AMINOGLYCOSIDE ANTIBIOTICS” (KYUNGPOOK NATIONAL UNIVERSITY INDUSTRY-ACADEMIC COOPERATION …, priority 2023, published 2026):

Legend:
Assay type in all cases: cell-based, ICR mice
[1] = system: inner hair cells (IHCs) and outer hair cells (OHCs) of the organ of Corti; experiment: Phalloidin staining of stereocilia / hair cell morphology in organotypic cochlear explants; settings: for relative severity of damage, OHC versus IHC / hair cell morphology / damage after antibiotic treatment: cochlear explants, no BC; for relative severity of damage, OHC versus IHC: 1.2 mM KM or 100 μM GM; for hair cell morphology / damage after antibiotic treatment: 1.2 mM KM, 3 mM AK or 100 μM GM
Procedure: (§1) Three-day-old ICR (Institute for Cancer Research) mice were purchased from Hyochang Science (Daegu, South Korea) for […]. Dissected cochleae were cultured in high-glucose Dulbecco's Modified Eagle's Medium (DMEM; Hyclone, Logan, UT, USA) containing 10% fetal bovine serum (Hyclone) and ampicillin (10 μg/mL; Life Technologies, Carlsbad, CA, USA) at 37° C. in a humidified atmosphere in the presence of 5% CO2. After 16 hours of culture, cochleae were first treated with 0.1 μM or 1 μM BC for 1 hour, followed by addition of one of three aminoglycoside antibiotics (1.2 mM KM, 3 mM AK, or 100 μM GM) to the culture medium. BC concentrations were optimized for each aminoglycoside (0.1 μM for KM, 1 μM for AK and GM).
(§2) To evaluate the morphology of inner hair cells (IHCs) and outer hair cells (OHCs) of the organ of Corti, the specimens were cultured for 48 hours and fixed with 4% paraformaldehyde (PFA, pH 7.4) in PBS for 15 minutes. After washing three times with PBS, a stereociliary bundle of explants was stained with Alexa Fluor 488-or 555-conjugated phalloidin (1:1,000; Invitrogen-Molecular Probes, Eugene, OR) in PBS for 1 hour at room temperature (RT). Specimens were mounted on glass slides using Fluoromount (Sigma-Aldrich, St. Louis, MO) and visualized using an Axio Imager A2 fluorescence microscope (Carl Zeiss, Oberkochen, Germany).

[2] = system: mitochondrial membrane potential of cochlear hair cells; experiment: JC-1 assay of mitochondrial membrane potential in cochlear explants; settings: for red/green fluorescence ratio (mitochondrial membrane potential) after antibiotic treatment: KM, AK, or GM only
Procedure: as §1
The cationic fluorescent dye MitoProbe™ JC-1 (Invitrogen-Molecular Probes) was used to measure the mitochondrial membrane potential. After 30 hours of culture, the specimens were washed with PBS and stained with JC-1 (2 μM) for 2 hours at 37° C. in the presence of 5% CO2 in a darkroom. The sensitivity of the JC-1 assay was verified by adding 50 μM carbonyl [COMPOUND LEFT OUT] 3-chlorophenylhydrazone (CCCP) to untreated specimens before JC-1 staining, and then the specimens were cultured at 37° C. in the presence of 5% CO2 for 5 minutes for activation of CCCP. JC-1 fluorescence was split into red and green, and then the segmented images were converted to grayscale, followed by evaluation using ImageJ software (http://imageJ.nih.gov/ij/).

[3] = system: cells of the organ of Corti; experiment: TUNEL assay of apoptotic DNA fragmentation in cochlear explants; settings: for apoptotic DNA fragmentation / cell death induced by antibiotic: KM, AK, or GM in mouse cochlea, no BC
Procedure: as §1
To detect DNA fragmentation leading to cell death, a TUNEL assay kit (Promega, Madison, WI) was used according to the manufacturer's protocol. Specimens were fixed with 4% paraformaldehyde in PBS for 15 minutes at room temperature (RT) and treated with 0.1% PBS-Tx in 0.1% sodium citrate for 30 minutes at 37° C. Fragmented DNA from cells was stained using TUNEL working solution at 37° C. for 30 minutes. F-actin was labeled with Alexa Fluor 555-conjugated phalloidin in PBS-Tx for 3 hours at room temperature (RT) in the dark and visualized using a Zeiss Axio Imager A2 fluorescence microscope.

[4] = system: cleaved caspase-3 in organ of Corti; experiment: Immunohistochemistry for cleaved (active) caspase-3 in cochlear explants; settings: for level of cleaved caspase-3 after antibiotic treatment: KM, AK, or GM versus untreated controls, no BC
Procedure: as §1
Immunohistochemistry and TUNEL assay for active caspase-3 were used to determine whether cell death in the organ of Corti occurred by apoptosis. Specimens were fixed with 4% PFA, kept permeabilized with 0.1% Triton X-100 in PBS (PBS-Tx) for 30 minutes at room temperature (RT), blocked with 5% normal goat serum for 1 hour at room temperature (RT), and cultured overnight with anti-caspase-3 antibody (1:1,000; Cell Signaling Technology, Bevery, MA) diluted in blocking solution.

[5] = system: IHCs and OHCs (cochlear hair cells); experiment: Quantification of surviving hair cells with V-shaped stereocilia in cochlear explants; settings: for IHC survival / cytotoxicity to IHC: 3 mM AK, 1.2 mM KM, 100 μM GM, no BC
Procedure: as §1, §2
[Example 5] Quantification of hair cells and statistical analysis For quantitative analysis of hair cell damage, IHCs and OHCs with intact v-shaped […] were individually counted along a 200 μm length of basilar membrane in the apical (30%), middle (50%), and basal (70%) regions of each cochlear probe. All experiments were performed independently at least three times.

[6] = system: mitochondrial reactive oxygen species (ROS) in cochlear hair cells; experiment: MitoSOX Red assay of mitochondrial ROS in cochlear explants
Procedure: as §1
To analyze AK or KM-induced mitochondrial oxidative stress, cochlear explants were examined by MitoSOX Red assay and JC-1 assay. Levels of mitochondrial reactive oxygen species (ROS) were detected by staining with 5 μM MitoSOX Red (Invitrogen-Molecular Probes) for 5 minutes in a humidified atmosphere at 37° C. in the presence of 5% CO2. The specimen was washed with PBS and visualized using a Zeiss Axio Imager A2 fluorescence microscope.

`NC[C@H]1O[C@H](O[C@H]2[C@H](O)[C@@H](O[C@H]3O[C@H](CO)[C@@H](O)[C@H](N)[C@H]3O)[C@H](N)C[C@@H]2N)[C@H](O)[C@@H](O)[C@@H]1O` [KM, kanamycin] was tested, and the “relative severity of damage, OHC versus IHC” value [1] was “more severe in OHC than in IHC”, the “hair cell morphology / damage after antibiotic treatment” value [1] was “not only altered the ciliary morphology of hair cells but also disrupted cell arrangement, with induction of cell loss in a complex manner” and the “red/green fluorescence ratio (mitochondrial membrane potential) after antibiotic treatment” value ([2]; JC-1) was “significant decrease in the red/green ratio along with a loss of red signal”. The “apoptotic DNA fragmentation / cell death induced by antibiotic” value [3] was “resulted in cell death”, the “level of cleaved caspase-3 after antibiotic treatment” value (shortened to “level”) [4] was “significantly increased levels of cleaved caspase-3 compared to untreated controls” and the “IHC survival / cytotoxicity to IHC” value [5] was “more resistant”.

gentamicin [GM] was tested, and the “relative severity of damage, OHC versus IHC” value [1] was “caused more severe damage to OHCs than IHCs, with loss of hair cells”, the “red/green fluorescence ratio (mitochondrial membrane potential) after antibiotic treatment” value ([2]; JC-1) was “significant decrease in the red/green ratio along with a loss of red signal” and the “apoptotic DNA fragmentation / cell death induced by antibiotic” value [3] was “resulted in cell death”. For the same compound, the “level” value [4] was “significantly increased levels of cleaved caspase-3 compared to untreated controls” and the “IHC survival / cytotoxicity to IHC” value [5] was “more resistant”.

For `COc1ccc2cc3[n+](cc2c1OC)CCc1cc2c(cc1-3)OCO2` [BC, berberine chloride], the “decrease of MitoSOX Red fluorescence intensity (mitochondrial ROS)” value ([6]; BC pretreatment, then KM, AK or GM) was “significant decrease in fluorescence intensity”, the “statistical significance of reduced integrated density of red fluorescence” value ([6]; BC treatment group versus AK, KM, and GM groups) was “statistically significant compared to the AK, KM, and GM groups” and the “protection against stereocilia degeneration and hair cell loss” value ([1]; 0.1 or 1 μM BC for 1 hour before antibiotic (KM, AK, or GM), apical, middle, basal regions) was “alleviated stereocilia degeneration and hair cell loss in all cochlear regions”. The “red/green fluorescence ratio (mitochondrial membrane potential) with BC” value ([2]; BC pretreatment, then KM, AK or GM, JC-1, n=3 per group, *P<0.05 and **P<0.01) was “red/green fluorescence ratio was found to increase”, the “statistical significance of protective effect on mitochondrial membrane potential” value ([2]; BC pretreatment, then KM, AK or GM, n=3 per group, *P<0.05 and **P<0.01) was “statistically significant” and the “reduction of apoptotic DNA fragmentation (TUNEL labeling)” value ([3]; BC pretreatment compared with KM, AK, or GM treatment) was “significant reduction by BC pretreatment to near control levels”. For the same compound, the “reduction of cleaved caspase-3” value ([4]; BC pre-treatment before antibiotics (KM, AK, GM)) was “reduced cleaved caspase-3”, the “reduction of antibiotic-induced hair cell damage (surviving hair cells)” value ([5]; BC pretreatment (0.1 μM for KM, 1 μM for AK and GM), IHC and OHC, apical, middle and basal turns) was “antibiotic-induced damage was reduced to near-normal levels” and the “cytotoxicity of BC to IHC and OHC” value ([5]; BC, cochlear explants) was “no detrimental effects on IHC or OHC”.

With `NCC[C@H](O)C(=O)N[C@@H]1C[C@H](N)[C@@H](O[C@H]2O[C@H](CN)[C@@H](O)[C@H](O)[C@H]2O)[C@H](O)[C@H]1O[C@H]1O[C@H](CO)[C@@H](O)[C@H](N)[C@H]1O` [AK, amikacin] the “hair cell morphology / damage after antibiotic treatment” value [1] was “most of their cilia disintegrated and lost, making them unrecognizable”, the “red/green fluorescence ratio (mitochondrial membrane potential) after antibiotic treatment” value ([2]; JC-1) was “significant decrease in the red/green ratio along with a loss of red signal” and the “apoptotic DNA fragmentation / cell death induced by antibiotic” value [3] was “resulted in cell death”. For the same compound, the “level” value [4] was “significantly increased levels of cleaved caspase-3 compared to untreated controls” and the “IHC survival / cytotoxicity to IHC” value [5] was “virtually destroyed”.
